In BindingDB's records for patent US11130769 (Prelude Therapeutics, 2021) one finds Ki data, which are given here for eleven compounds.

The term Ki denotes a dissociation constant, usually derived from enzyme kinetics or from competition with a known ligand. Low readings indicate a stronger hold on the target, high ones a looser hold on the target.

The assay deals with Induced myeloid leukemia cell differentiation protein Mcl-1 (Homo sapiens, UniProt Q07820). The assay can be described thus: Fluorescence Polarization Competition Assay. The procedure: The assay was carried out in black half-area 96-well NBS plate (Corning), containing 15 nM of MCL-1 (BPS Bioscience), 5 nM of FITC-Bim and 3-fold serial diluted test compounds in a total volume of 50 μL of assay buffer (20 mM HEPES, 50 mM NaCl, 0.002% Tween 20, 1 mM TCEP, and 1% DMSO). The reaction plate was incubated for 1 hour at room temperature. The change of anisotropy is measured with an Envision multimode plate reader (PerkinElmer) at emission wavelength 535 nm. Fluorescence polarization was calculated in mP unit and the percentage inhibition was calculated by % inhibition=100×(mPDMSO−mP)/(mPDMSO−mPPC), in which mPDMSO is the DMSO control, and mPpc is the positive control. IC50 values were determined from a 10-point dose response curve by fitting the percent inhibition against compound concentration using the GraphPad Prism software
Induced myeloid leukemia cell differentiation protein Mcl-1, sequence (Q07820 whole entry): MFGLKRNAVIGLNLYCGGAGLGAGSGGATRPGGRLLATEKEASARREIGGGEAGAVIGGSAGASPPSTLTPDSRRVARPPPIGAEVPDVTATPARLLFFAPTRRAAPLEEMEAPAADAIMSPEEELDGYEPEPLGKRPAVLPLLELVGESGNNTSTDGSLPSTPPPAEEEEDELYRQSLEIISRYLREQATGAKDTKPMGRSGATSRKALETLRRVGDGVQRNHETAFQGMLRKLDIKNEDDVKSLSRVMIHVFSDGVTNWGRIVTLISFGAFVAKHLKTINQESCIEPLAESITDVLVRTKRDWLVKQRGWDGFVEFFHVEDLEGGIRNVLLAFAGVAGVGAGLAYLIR
`CN1C/C=C/[C@H](OC(=O)NC2CC2)[C@@H]2CC[C@H]2CN2C[C@@]3(CCCc4cc(Cl)ccc43)COc3ccc(cc32)S(=O)(=O)NC(=O)C1(C)C`: the inhibition constant Ki was below 300 nM.

As for `CN(C)CCN(C)C(=O)O[C@H]1/C=C/COC(C)(C)C(=O)NS(=O)(=O)c2ccc3c(c2)N(C[C@@H]2CC[C@H]21)C[C@@]1(CCOc2cc(Cl)ccc21)CO3`, the Ki was below 300 nM.

`CCO[C@@H]1CCN(C(=O)O[C@H]2/C=C/COC(C)(C)C(=O)NS(=O)(=O)c3ccc4c(c3)N(C[C@@H]3CC[C@H]32)C[C@@]2(CCOc3cc(Cl)ccc32)CO4)C1` came in with an inhibition constant Ki below 300 nM.

With `COC1CN(C(=O)O[C@H]2/C=C/COC(C)(C)C(=O)NS(=O)(=O)c3ccc4c(c3)N(C[C@@H]3CC[C@H]32)C[C@@]2(CCOc3cc(Cl)ccc32)CO4)C1`, the Ki was below 300 nM.

In turn, `CN(C)[C@@H]1CCN(C(=O)O[C@H]2/C=C/COC(C)(C)C(=O)NS(=O)(=O)c3ccc4c(c3)N(C[C@@H]3CC[C@H]32)C[C@@]2(CCOc3cc(Cl)ccc32)CO4)C1` had a Ki below 300 nM.

`CN(C)C1CN(C(=O)O[C@H]2/C=C/COC(C)(C)C(=O)NS(=O)(=O)c3ccc4c(c3)N(C[C@@H]3CC[C@H]32)C[C@@]2(CCOc3cc(Cl)ccc32)CO4)C1` displayed an inhibitory constant (Ki) below 300 nM.

For `CO[C@H]1/C=C/CN2CCC[C@H]2C(=O)NS(=O)(=O)c2ccc3c(c2)N(C[C@@H]2CC[C@H]21)C[C@@]1(CCCc2cc(Cl)ccc21)CO3` [US11130769, Ex. No. 100], the Ki was below 100 nM.

As for `CO[C@@H]1/C=C/CN(C)C(=O)NS(=O)(=O)c2ccc3c(c2)N(C[C@@H]2CC[C@H]21)C[C@@]1(CCCc2cc(Cl)ccc21)CO3` [US11130769, Ex. No. 108], the Ki was below 100 nM.

In turn, `CN(C)C(=O)O[C@@H]1/C=C/CN(C)C2(CCC2)C(=O)NS(=O)(=O)c2ccc3c(c2)N(C[C@@H]2CC[C@H]21)C[C@@]1(CCCc2cc(Cl)ccc21)CO3` [US11130769, Ex. No. 139] yielded a Ki below 100 nM.

`CN(C)C[C@H]1CCCN1C(=O)O[C@H]1/C=C/COC(C)(C)C(=O)NS(=O)(=O)c2ccc3c(c2)N(C[C@@H]2CC[C@H]21)C[C@@]1(CCCc2cc(Cl)ccc21)CO3` [US11130769, Ex. No. 169] yielded a Ki below 300 nM.

`CCOC(=O)N(C)[C@@H]1/C=C/COC(C)(C)C(=O)NS(=O)(=O)c2ccc3c(c2)N(C[C@@H]2CC[C@H]21)C[C@@]1(CCCc2cc(Cl)ccc21)CO3` [US11130769, Ex. No. 252] gave a Ki below 100 nM.
